Data as given in US9006487B2, “Amine-containing lipids and uses thereof” (Massachusetts Institute of Technology, priority 2005, dated 2015).
Several values for one entry are separate records, joined by “and”; a condition that tells them apart may be missing. Identical values can stand only once.

Tested on: cos-7 cells
Assay: DNA transfection: luciferase expression relative to Lipofectamine 2000
Assay type: cell-based
Details: for Luciferase expression as a percentage of that achieved using Lipofectamine 2000: 300 ng Luciferase DNA per well
Outline: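 cos-7 cells were transfected with 300 ng/well luciferase DNA complexed with lipid at ratios from 2.5 to 25 w/w. Bright-Glo luminescence was read after 48 hours and converted to ng luciferase by standard curve. Data are percent of the Lipofectamine 2000 control (2.5 w/w).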

[1] = lipid/DNA 2.5 w/w, luciferase assay after 48 hours
[2] = lipid/DNA 5 w/w, luciferase assay after 48 hours
[3] = lipid/DNA 10 w/w, luciferase assay after 48 hours
[4] = lipid/DNA 15 w/w, luciferase assay after 48 hours
[5] = lipid/DNA 20 w/w, luciferase assay after 48 hours
[6] = lipid/DNA 25 w/w, luciferase assay after 48 hours
[7] = lipid/DNA 2.5 w/w, 72 hours incubation before bright-glo
[8] = lipid/DNA 5 w/w, 72 hours incubation before bright-glo
[9] = lipid/DNA 10 w/w, 72 hours incubation before bright-glo
[10] = lipid/DNA 15 w/w, 72 hours incubation before bright-glo
[11] = lipid/DNA 20 w/w, 72 hours incubation before bright-glo
[12] = lipid/DNA 25 w/w, 72 hours incubation before bright-glo

## CCCCCCCCCCCCCCCOC(=O)CCN(CCC(=O)OCCCCCCCCCCCCCCC)CCN1CCCCC1 [LG82]
[1]
  Luciferase expression as a percentage of that achieved using Lipofectamine 2000: 0.2%
[2]
  Luciferase expression as a percentage of that achieved using Lipofectamine 2000: 0.2%
[3]
  Luciferase expression as a percentage of that achieved using Lipofectamine 2000: 0.6%
[4]
  Luciferase expression as a percentage of that achieved using Lipofectamine 2000: 0.8%
[5]
  Luciferase expression as a percentage of that achieved using Lipofectamine 2000: 0.5%
[6]
  Luciferase expression as a percentage of that achieved using Lipofectamine 2000: 1.2%

## CCCCCCCCCCCCCCCOC(=O)CCN(CCCN(CCO)CCO)CCC(=O)OCCCCCCCCCCCCCCC [LG87]
[1]
  Luciferase expression as a percentage of that achieved using Lipofectamine 2000: 14.5%
[2]
  Luciferase expression as a percentage of that achieved using Lipofectamine 2000: 7.5%
[3]
  Luciferase expression as a percentage of that achieved using Lipofectamine 2000: 9.2%
[4]
  Luciferase expression as a percentage of that achieved using Lipofectamine 2000: 10.4%
[5]
  Luciferase expression as a percentage of that achieved using Lipofectamine 2000: 5.9%
[6]
  Luciferase expression as a percentage of that achieved using Lipofectamine 2000: 4.7%

## CCCCCCCCCCCCCCCOC(=O)CCN(CCC(=O)OCCCCCCCCCCCCCCC)CCN1CCOCC1 [LG90]
[1]
  Luciferase expression as a percentage of that achieved using Lipofectamine 2000: 0.1% and 0.6%
[2]
  Luciferase expression as a percentage of that achieved using Lipofectamine 2000: 0.1% and 0.6%
[3]
  Luciferase expression as a percentage of that achieved using Lipofectamine 2000: 0.0% and 0.4%
[4]
  Luciferase expression as a percentage of that achieved using Lipofectamine 2000: 0.0% and 0.4%
[5]
  Luciferase expression as a percentage of that achieved using Lipofectamine 2000: 0.1% and 0.4%
[6]
  Luciferase expression as a percentage of that achieved using Lipofectamine 2000: 0.0% and 0.4%

## CCCCCCCCCCCCCCCOC(=O)CCN(CCCN1CCOCC1)CCC(=O)OCCCCCCCCCCCCCCC [LG91]
[1]
  Luciferase expression as a percentage of that achieved using Lipofectamine 2000: 0.2%
[2]
  Luciferase expression as a percentage of that achieved using Lipofectamine 2000: 0.2%
[3]
  Luciferase expression as a percentage of that achieved using Lipofectamine 2000: 0.1%
[4]
  Luciferase expression as a percentage of that achieved using Lipofectamine 2000: 0.2%
[5]
  Luciferase expression as a percentage of that achieved using Lipofectamine 2000: 0.1%
[6]
  Luciferase expression as a percentage of that achieved using Lipofectamine 2000: 0.1%

## CCCCCCCCCCCCCCCOC(=O)CCN(CCCn1ccnc1)CCC(=O)OCCCCCCCCCCCCCCC [LG93]
[7]
  Luciferase expression as a percentage of that achieved using Lipofectamine 2000: 45.0%
  luciferase expression (second part of table, values relative to LIPO2000): 45.0
[1]
  Luciferase expression as a percentage of that achieved using Lipofectamine 2000: 3.6%
[8]
  Luciferase expression as a percentage of that achieved using Lipofectamine 2000: 43.8%
  luciferase expression (second part of table, values relative to LIPO2000): 43.8
[2]
  Luciferase expression as a percentage of that achieved using Lipofectamine 2000: 9.2%
[9]
  Luciferase expression as a percentage of that achieved using Lipofectamine 2000: 310.5%
  luciferase expression (second part of table, values relative to LIPO2000): 310.5
[3]
  Luciferase expression as a percentage of that achieved using Lipofectamine 2000: 19.8%
[10]
  Luciferase expression as a percentage of that achieved using Lipofectamine 2000: 281.8%
  luciferase expression (second part of table, values relative to LIPO2000): 281.8
[4]
  Luciferase expression as a percentage of that achieved using Lipofectamine 2000: 37.3%
[11]
  Luciferase expression as a percentage of that achieved using Lipofectamine 2000: 185.9%
  luciferase expression (second part of table, values relative to LIPO2000): 185.9
[5]
  Luciferase expression as a percentage of that achieved using Lipofectamine 2000: 24.0%
[12]
  Luciferase expression as a percentage of that achieved using Lipofectamine 2000: 183.8%
  luciferase expression (second part of table, values relative to LIPO2000): 183.8
[6]
  Luciferase expression as a percentage of that achieved using Lipofectamine 2000: 24.6%

## CCCCCCCCCCCCCCCCCCOC(=O)CCN(CCCOC)CCC(=O)OCCCCCCCCCCCCCCCCCC [LH1]
[1]
  Luciferase expression as a percentage of that achieved using Lipofectamine 2000: 0.0%
[2]
  Luciferase expression as a percentage of that achieved using Lipofectamine 2000: 0.0%
[3]
  Luciferase expression as a percentage of that achieved using Lipofectamine 2000: 0.0%
[4]
  Luciferase expression as a percentage of that achieved using Lipofectamine 2000: 0.0%
[5]
  Luciferase expression as a percentage of that achieved using Lipofectamine 2000: 0.0%
[6]
  Luciferase expression as a percentage of that achieved using Lipofectamine 2000: 0.0%

## CCCCCCCCCCCCCCCCCCOC(=O)CCN(CCC(=O)OCCCCCCCCCCCCCCCCCC)CCC1OCCO1 [LH6]
[1]
  Luciferase expression as a percentage of that achieved using Lipofectamine 2000: 0.0%
[2]
  Luciferase expression as a percentage of that achieved using Lipofectamine 2000: 0.0%
[3]
  Luciferase expression as a percentage of that achieved using Lipofectamine 2000: 0.0%
[4]
  Luciferase expression as a percentage of that achieved using Lipofectamine 2000: 0.0%
[5]
  Luciferase expression as a percentage of that achieved using Lipofectamine 2000: 0.0%
[6]
  Luciferase expression as a percentage of that achieved using Lipofectamine 2000: 0.0%

## CCCCCCCCCCCCCCCCCCOC(=O)CCN(CCC(=O)OCCCCCCCCCCCCCCCCCC)CC1COC(C)(C)O1 (centres unmarked) [LH7]
[1]
  Luciferase expression as a percentage of that achieved using Lipofectamine 2000: 0.0%
[2]
  Luciferase expression as a percentage of that achieved using Lipofectamine 2000: 0.0%
[3]
  Luciferase expression as a percentage of that achieved using Lipofectamine 2000: 0.0%
[4]
  Luciferase expression as a percentage of that achieved using Lipofectamine 2000: 0.0%
[5]
  Luciferase expression as a percentage of that achieved using Lipofectamine 2000: 0.0%
[6]
  Luciferase expression as a percentage of that achieved using Lipofectamine 2000: 0.0%

## CCCCCCCCCCCCCCCCCCOC(=O)CCN(CCOC)CCC(=O)OCCCCCCCCCCCCCCCCCC [LH10]
[1]
  Luciferase expression as a percentage of that achieved using Lipofectamine 2000: 0.0%
[2]
  Luciferase expression as a percentage of that achieved using Lipofectamine 2000: 0.0%
[3]
  Luciferase expression as a percentage of that achieved using Lipofectamine 2000: 0.0%
[4]
  Luciferase expression as a percentage of that achieved using Lipofectamine 2000: 0.0%
[5]
  Luciferase expression as a percentage of that achieved using Lipofectamine 2000: 0.0%
[6]
  Luciferase expression as a percentage of that achieved using Lipofectamine 2000: 0.0%

## CCCCCCCCCCCCCCCCCCOC(=O)CCN(CCOCC)CCC(=O)OCCCCCCCCCCCCCCCCCC [LH11]
[1]
  Luciferase expression as a percentage of that achieved using Lipofectamine 2000: 0.0%
[2]
  Luciferase expression as a percentage of that achieved using Lipofectamine 2000: 0.0%
[3]
  Luciferase expression as a percentage of that achieved using Lipofectamine 2000: 0.0%
[4]
  Luciferase expression as a percentage of that achieved using Lipofectamine 2000: 0.0%
[5]
  Luciferase expression as a percentage of that achieved using Lipofectamine 2000: 0.0%
[6]
  Luciferase expression as a percentage of that achieved using Lipofectamine 2000: 0.0%

## CCCCCCCCCCCCCCCCCCOC(=O)CCN(CCC(=O)OCCCCCCCCCCCCCCCCCC)CC(OC)OC [LH13]
[1]
  Luciferase expression as a percentage of that achieved using Lipofectamine 2000: 0.0%
[2]
  Luciferase expression as a percentage of that achieved using Lipofectamine 2000: 0.0%
[3]
  Luciferase expression as a percentage of that achieved using Lipofectamine 2000: 0.0%
[4]
  Luciferase expression as a percentage of that achieved using Lipofectamine 2000: 0.0%
[5]
  Luciferase expression as a percentage of that achieved using Lipofectamine 2000: 0.0%
[6]
  Luciferase expression as a percentage of that achieved using Lipofectamine 2000: 0.0%

## CCCCCCCCCCCCCCCCCCOC(=O)CCN(CCC(=O)OCCCCCCCCCCCCCCCCCC)CC1CCCO1 (centres unmarked) [LH15]
[1]
  Luciferase expression as a percentage of that achieved using Lipofectamine 2000: 0.0%
[2]
  Luciferase expression as a percentage of that achieved using Lipofectamine 2000: 0.0%
[3]
  Luciferase expression as a percentage of that achieved using Lipofectamine 2000: 0.0%
[4]
  Luciferase expression as a percentage of that achieved using Lipofectamine 2000: 0.0%
[5]
  Luciferase expression as a percentage of that achieved using Lipofectamine 2000: 0.0%
[6]
  Luciferase expression as a percentage of that achieved using Lipofectamine 2000: 0.0%

## CCCCCCCCCCCCCCCCCCOC(=O)CCN(CCC(=O)OCCCCCCCCCCCCCCCCCC)CCc1ccc(OC)c(OC)c1 [LH17]
[1]
  Luciferase expression as a percentage of that achieved using Lipofectamine 2000: 0.0%
[2]
  Luciferase expression as a percentage of that achieved using Lipofectamine 2000: 0.0%
[3]
  Luciferase expression as a percentage of that achieved using Lipofectamine 2000: 0.0%
[4]
  Luciferase expression as a percentage of that achieved using Lipofectamine 2000: 0.0%
[5]
  Luciferase expression as a percentage of that achieved using Lipofectamine 2000: 0.0%
[6]
  Luciferase expression as a percentage of that achieved using Lipofectamine 2000: 0.0%

## CCCCCCCCCCCCCCCCCCOC(=O)CCN(CCCO)CCC(=O)OCCCCCCCCCCCCCCCCCC [LH20]
[1]
  Luciferase expression as a percentage of that achieved using Lipofectamine 2000: 0.0%
[2]
  Luciferase expression as a percentage of that achieved using Lipofectamine 2000: 0.0%
[3]
  Luciferase expression as a percentage of that achieved using Lipofectamine 2000: 0.0%
[4]
  Luciferase expression as a percentage of that achieved using Lipofectamine 2000: 0.0%
[5]
  Luciferase expression as a percentage of that achieved using Lipofectamine 2000: 0.0%
[6]
  Luciferase expression as a percentage of that achieved using Lipofectamine 2000: 0.0%

## CCCCCCCCCCCCCCCCCCOC(=O)CCN(CCC(=O)OCCCCCCCCCCCCCCCCCC)C[C@@H](C)O [LH21]
[1]
  Luciferase expression as a percentage of that achieved using Lipofectamine 2000: 0.0%
[2]
  Luciferase expression as a percentage of that achieved using Lipofectamine 2000: 0.0%
[3]
  Luciferase expression as a percentage of that achieved using Lipofectamine 2000: 0.0%
[4]
  Luciferase expression as a percentage of that achieved using Lipofectamine 2000: 0.0%
[5]
  Luciferase expression as a percentage of that achieved using Lipofectamine 2000: 0.0%
[6]
  Luciferase expression as a percentage of that achieved using Lipofectamine 2000: 0.0%

## CCCCCCCCCCCCCCCCCCOC(=O)CCN(CCC(=O)OCCCCCCCCCCCCCCCCCC)C[C@H](C)O [LH22]
[1]
  Luciferase expression as a percentage of that achieved using Lipofectamine 2000: 0.0%
[2]
  Luciferase expression as a percentage of that achieved using Lipofectamine 2000: 0.0%
[3]
  Luciferase expression as a percentage of that achieved using Lipofectamine 2000: 0.0%
[4]
  Luciferase expression as a percentage of that achieved using Lipofectamine 2000: 0.0%
[5]
  Luciferase expression as a percentage of that achieved using Lipofectamine 2000: 0.0%
[6]
  Luciferase expression as a percentage of that achieved using Lipofectamine 2000: 0.0%

## CCCCCCCCCCCCCCCCCCOC(=O)CCN(CCCCO)CCC(=O)OCCCCCCCCCCCCCCCCCC [LH28]
[3]
  Luciferase expression as a percentage of that achieved using Lipofectamine 2000: 0.2%
[4]
  Luciferase expression as a percentage of that achieved using Lipofectamine 2000: 0.2%

## CCCCCCCCCCCCNC(=O)CCN(CCC(=O)NCCCCCCCCCCCC)C(C)(CO)CO [ND26]
lipid/DNA 2.5 w/w, 300 ng of DNA per well
  luciferase expression (second part of table, values relative to LIPO2000): 13.4
lipid/DNA 5 w/w, 300 ng of DNA per well
  luciferase expression (second part of table, values relative to LIPO2000): 2.3
lipid/DNA 10 w/w, 300 ng of DNA per well
  luciferase expression (second part of table, values relative to LIPO2000): 0.1
lipid/DNA 15 w/w, 300 ng of DNA per well
  luciferase expression (second part of table, values relative to LIPO2000): 0.0
lipid/DNA 20 w/w, 300 ng of DNA per well
  luciferase expression (second part of table, values relative to LIPO2000): 0.0
lipid/DNA 25 w/w, 300 ng of DNA per well
  luciferase expression (second part of table, values relative to LIPO2000): 0.0
